Common to all, as to format: functional
Assay [1] deals with Vibrio parahaemolyticus. Briefly: Antibacterial activity against Vibrio parahaemolyticus QDIO-5 assessed as reduction in microbial growth after 24 hrs by serial dilution method.
In assay [2] the test system is Aeromonas hydrophila. Description: Antibacterial activity against Aeromonas hydrophila QDIO-10 assessed as reduction in microbial growth after 24 hrs by serial dilution method.
Assay [3] deals with Edwardsiella tarda. Briefly: Antibacterial activity against Edwardsiella tarda QDIO-8 assessed as reduction in microbial growth after 24 hrs by serial dilution method.
In assay [4] the test system is Vibrio alginolyticus. Description: Antibacterial activity against Vibrio alginolyticus QDIO-7 assessed as reduction in microbial growth after 24 hrs by serial dilution method.
Assay [5] relates to Vibrio anguillarum. Briefly: Antibacterial activity against Vibrio anguillarum QDIO-9 assessed as reduction in microbial growth after 24 hrs by serial dilution method.
The test system of assay [6] is Escherichia coli. Briefly: Antibacterial activity against Escherichia coli QDIO-1 assessed as reduction in microbial growth after 24 hrs by serial dilution method.
Assay [7] deals with Vibrio vulnificus. Description: Antibacterial activity against Vibrio vulnificus QDIO-4 assessed as reduction in microbial growth after 24 hrs by serial dilution method.
Assay [8] concerns Pseudomonas aeruginosa. Description: Antibacterial activity against Pseudomonas aeruginosa QDIO-2 assessed as reduction in microbial growth after 24 hrs by serial dilution method.

For the molecule `CC(C)=C/C=C\[C@H](C)[C@H]1CC[C@]2(C)C[C@@H]3C(C)=CC(=O)[C@H]3/C(C=O)=C\C[C@@H]12`, the minimal inhibitory concentration (MIC) in assay [1] came to 8 mg/L; in assay [2], 8 mg/L; in assay [3] it was 8 mg/L; in assay [4], 4 mg/L; in assay [5], 32 mg/L; in assay [6], 16 mg/L. Further, the MIC in assay [7] and in assay [8] was 8 mg/L throughout.
Take `CC(C)=C/C=C\[C@H](C)[C@H]1CC[C@]2(C)C[C@@H]3C(C)=CC(=O)[C@H]3/C(CO)=C\C[C@@H]12`: the MIC turned out to be 8 mg/L in assay [1]; 8 mg/L in assay [2]; 8 mg/L in assay [3]; 4 mg/L in assay [4]; 32 mg/L in assay [5]; 16 mg/L in assay [6]. Besides, the minimal inhibitory concentration (MIC) in assay [7] and in assay [8] was 8 mg/L throughout.
Consider `CC(C)=C/C=C\[C@H](C)[C@H]1CC[C@]2(C)C[C@H]3[C@@H]4/C(=C\C[C@@H]12)CO[C@]4(O)C[C@@]3(C)O`, for which the MIC in assay [1], in assay [2], in assay [3], in assay [4], in assay [5] and in assay [6] was more than 32 mg/L in each case. Moreover, the MIC in assay [7] and in assay [8] was more than 32 mg/L in each case.
As for `CC(C)=CCC[C@H](C)[C@H]1CC[C@]2(C)C[C@H]3[C@@H]4/C(=C\C[C@@H]12)CO[C@]4(O)C[C@@]3(C)O`, the minimal inhibitory concentration (MIC) in assay [1], in assay [2], in assay [3], in assay [4], in assay [5] and in assay [6] was more than 32 mg/L in each case. For the same molecule, the MIC in assay [7] and in assay [8] was more than 32 mg/L in each case.
Regarding `COc1cc2c(c(O)c1OC/C=C(\C)CC/C=C(\C)CCCC(C)(C)OC(C)=O)COC2=O`, the minimum inhibitory concentration (MIC) is 8 mg/L in assay [1]; 8 mg/L in assay [2]; 4 mg/L in assay [3]; 4 mg/L in assay [4]; more than 32 mg/L in assay [5]; 32 mg/L in assay [6]. Also, the MIC came out at 4 mg/L in assay [7] and 8 mg/L in assay [8].
Take `CO[C@]12C[C@@](C)(O)[C@H]3C[C@@]4(C)CC[C@H]([C@@H](C)/C=C\C=C(C)C)[C@@H]4C/C=C(/CO1)[C@@]32O`: the MIC in assay [1], in assay [2], in assay [3], in assay [4], in assay [5] and in assay [6] was more than 32 mg/L in each case. Moreover, the minimal inhibitory concentration (MIC) in assay [7] and in assay [8] was more than 32 mg/L in each case.
On to `COc1cc2c(c(O)c1OC/C=C(\C)CC/C=C(\C)CCC=C(C)C)COC2=O`, for which the minimum inhibitory concentration (MIC) was 16 mg/L in assay [1]; 8 mg/L in assay [2]; 8 mg/L in assay [3]; 4 mg/L in assay [4]; more than 32 mg/L in assay [5]; 32 mg/L in assay [6]. The MIC in assay [7] is 4 mg/L; in assay [8], 16 mg/L.
As to `CC(C)=CCC[C@H](C)[C@H]1CC[C@]2(C)C[C@@H]3C(C)=CC(=O)[C@H]3/C(CO)=C\C[C@@H]12`, the minimal inhibitory concentration (MIC) in assay [1], in assay [2], in assay [3], in assay [4], in assay [5] and in assay [6] was more than 32 mg/L each time. The minimal inhibitory concentration (MIC) in assay [7] and in assay [8] was more than 32 mg/L throughout.
Take `CC(C)=CCC[C@H](C)[C@H]1CC[C@]2(C)C[C@@H]3C(C)=CC(=O)[C@H]3/C(C=O)=C\C[C@@H]12`: the MIC in assay [1], in assay [2], in assay [3], in assay [4], in assay [5] and in assay [6] was more than 32 mg/L each time. Also, the MIC in assay [7] and in assay [8] was more than 32 mg/L in each case.
Regarding `COc1cc2c(c(O)c1OC/C=C(\C)CC/C=C(\C)CCCC(C)(C)O)COC2=O`, the MIC in assay [1] was 16 mg/L; in assay [2] it was 16 mg/L; in assay [3], 8 mg/L; in assay [4], 8 mg/L; in assay [5] it was more than 32 mg/L; in assay [6] it was 32 mg/L. Also, the MIC came to 4 mg/L in assay [7] and 16 mg/L in assay [8].
As for `CC(C)=CCC[C@H](C)[C@H]1CC[C@]2(C)C[C@H]3[C@H]4/C(=C\C[C@@H]12)CO[C@@]4(O)C[C@@]3(C)O`, the minimal inhibitory concentration (MIC) in assay [1] was 4 mg/L; in assay [2], 4 mg/L; in assay [3] it was 4 mg/L; in assay [4], 4 mg/L; in assay [5], 32 mg/L; in assay [6], 4 mg/L. The minimum inhibitory concentration (MIC) in assay [7] and in assay [8] was 8 mg/L each time.
With `O=C(N[C@H](CO)[C@H](O)c1ccc([N+](=O)[O-])cc1)C(Cl)Cl` [CHLORAMPHENICOL], the MIC in assay [1] stood at 1 mg/L; in assay [2], 1 mg/L; in assay [3] it was 0.5 mg/L; in assay [4], 0.5 mg/L; in assay [5] it was 0.5 mg/L; in assay [6], 1 mg/L. Further, the MIC in assay [7] was 0.5 mg/L; in assay [8] it was 1 mg/L.

Source of the values: ChEMBL document CHEMBL4673368, “Ophiobolin Sesterterpenoids and Farnesylated Phthalide Derivatives from the Deep Sea Cold-Seep-Derived Fungus Aspergillus insuetus SD-512” (2020).
